Counter-ions that a name gives are not always drawn.
Legend:
[1] = test system: astrocytes, mitochondrial and microfilament regions; experiment: CCCP challenge of mitochondrial and microfilament regions in astrocytes; type: cell-based; details: CCCP at 3 min 45 sec
Protocol: Microfilaments in astrocytes. Astrocytes were co-incubated with E-PEBBLEs and alexafluor-phalloidin (a microfilament stain). The fluorescence arising from the mitochondria, E-PEBBLEs, and microfilaments were able to be resolved though use of different fluorescent emission filters.
The cells were challenged with CCCP at 3 min 45 sec using normal experimental parameters, as described in Example 7.

[2] = test system: mitochondrial membrane E field in DITNC astrocytes; experiment: CCCP challenge of mitochondrial membrane E field in DITNC astrocytes measured by E-PEBBLEs; type: cell-based, rat; details: CCCP 12.2 μM added at 3 min 40 s
Protocol: Mitochondrial membrane and cytosol potentials were measured as follows. Immortalized rat (DITNC) astrocytes with autoflourescent mitochondria (American Type Culture Collection, Manassas, Va.) were plated on to glass cover slips at a concentration of ˜2×10^5 cells/mL. Cells were incubated in Dulbecco's Modified Eagle Medium (DMEM) supplemented with 10% fetal bovine serum and 1% penicillin/streptomycin (Invitrogen, Carlsbad, Calif.) overnight. The media was then removed and replaced with fresh media. […] The cover slip was rinsed with Hank's Balanced Salt Solution (HBSS) (Invitrogen, Carlsbad, Calif.) containing 10 mmol N-2-Hydroxyethylpiperazine-N′-2-Ethane Sulfonic Acid (HEPES) and placed in a stainless steel cell chamber with 1 mL HBSS containing 10 mmol HEPES. In some cases, tetramethylrhodamine methyl ester (TMRM) (Molecular Probes, Eugene, Oreg.) dissolved in dimethyl sulfoxide (DMSO) was added to the chamber for a total concentration of ˜50 nM to confirm mitochondrial fluorescence.
The entire chamber was mounted on a confocal microscope at room temperature (Olympus IX70 connected to a Life Science Resources UltraView equipped with an Ar—Kr laser and a Lambda 10-2 Sutter wheel from Sutter Instrument Co. Novato, Calif.) and examined with a 60× objective connected to a Z series motor. Four Z stacks were taken 1 minute apart, starting with time zero. […] Slices analyzed were ˜3-4 microns into the cell as measured from the bottom of the cell. […]
Cellular image analysis was performed as follows. Images of specific focal planes were transferred to the MetaMorph image analysis package and regions of interest (ROI) chosen consistent with TMRM-induced mitochondrial fluorescence, or the autofluorescent mitochondria of the astrocytes. […] The average pixel intensity was determined for each ROI, and the emission ratio of the 525:700 nm images was then calculated. In some cases, the emission ratio of 600:700 nm was calculated. […] For the TMRM channel, the average pixel intensity was recorded. […]

[3] = test system: mitochondrial membrane E field in DITNC astrocytes; experiment: Sequential CCCP depolarizations in astrocytes monitored by NOVs; type: cell-based; details: 5 μM CCCP, second dose at 46 minutes
Protocol: Repeat depolarizations were performed as follows. Astrocytes were prepared as above, but the cell chamber only contained 500 μL of HBSS with HEPES. 500 μL CCCP (5 μM final concentration in chamber) was added and images were collected every minute for the first 10 minutes after the addition of CCCP and every 5 minutes thereafter until the 45 minute time point. Then 500 μL of the CCCP solution was added at the 46 minute time point, and the images taken every minute until the 55 minute time point and every five minutes until the 90 minute time point.
(§1) Image analysis was performed as follows. Images were transferred to the MetaMorph image analysis package and regions of interest chosen consistent with TMRM-induced mitochondrial fluorescence, or the autofluorescent mitochondria of the astrocytes. In some cases, the images were expanded and regions of interest (ROI) were also chosen from the surrounding cytosol. The average pixel intensity ratio of the 600 nm image versus the 700 nm image was then calculated. For the TMRM channel, the average pixel intensity was recorded.
Sequential depolarizations were performed as follows. Astrocytes with autofluorescent mitochondria (to eliminate the need for TMRM) were incubated with NOVs, transferred to a confocal microscope, and the mitochondrial membrane depolarized with the use of CCCP. […]

[4] = test system: mitochondrial membrane E field in C6 glioma cells; experiment: CCCP depolarization of mitochondria in C6 gliomas monitored by NOV; type: cell-based, Mouse; details: CCCP total concentration 10 μM
Protocol: Depolarization, comparison with TMRM, and cytosol measurements were performed as follows. Mouse C6 glioma cells were plated on to glass cover slips at a concentration of approximately 2.5×10^5 cells/mL. Cells were incubated in DMEM supplemented with 10% FBS and 1% p/s overnight. The media was then removed and replaced with fresh media. NOVs were added to the suspension (125-250 μg particles) and the cells incubated for 30 minutes. The cover slip was rinsed with HBSS containing 10 mmol N-2-Hydroxyethylpiperazine-N′-2-Ethane Sulfonic Acid (HEPES) and placed in a stainless steel cell chamber with 1 mL HBSS containing 10 mmol HEPES. […]
as §1, with “In some cases, the images were expanded and regions of interest (ROI) were also chosen from the surrounding cytosol.” left out
CCCP depolarization was performed as follows. […] A region of interest was first determined in Metamorph by the punctuated bright areas that indicated mitochondria through TMRM localization. The emission ratio was then determined at the measurement time points. […]

[5] = test system: mitochondrial membrane E field in DITNC astrocytes; experiment: Repeated CCCP depolarizations in astrocytes measured by E-PEBBLEs; type: cell-based, rat; details: 3.1 μM at 3 min 50 s, second dose at 33 min 50 s; 600:700 nm ratio
Protocol: Repeated depolarizations of mitochondrial membrane potentials were performed as follows. Astrocytes were prepared as described above. Z series of Images were taken every minute for 15 minutes and every 5 minutes thereafter for 30 minutes. At time 3 minutes 50 sec, 1 μL of a CCCP solution (3.1 mM dissolved in DMSO and HBSS with HEPES; concentration in chamber was 3.1 μM) was added to the chamber. Starting at the 30 minute time point, images were again taken every minute until the 45 minute time point and every five minutes thereafter until the 60 minute time point. At time 33 minutes 50 seconds, a second dose of CCCP (3.1 mM) was added. The final concentration in the cell chamber for CCCP was 6.1 μM.
Cellular image analysis was performed as follows. Images of specific focal planes were transferred to the MetaMorph image analysis package and regions of interest (ROI) chosen consistent with TMRM-induced mitochondrial fluorescence, or the autofluorescent mitochondria of the astrocytes. In some cases, the images were expanded and regions of interest were also chosen from the surrounding cytosol. The average pixel intensity was determined for each ROI, and the emission ratio of the 525:700 nm images was then calculated. In some cases, the emission ratio of 600:700 nm was calculated. […] For the TMRM channel, the average pixel intensity was recorded. […]

DITNC astrocytes = experiment: Uptake, localization and tolerability of E-PEBBLEs in astrocytes; type: cell-based, rat; details: same final dye concentration as delivered in the E-PEBBLEs
Source text: Cells were illuminated at 488 nm and the fluorescent images were collected at 600 nm (50 nm band pass), 700 nm (50 nm band pass), and 525 nm (50 nm band pass).
Cell groups that appeared visually robust (i.e., elongate with little or no ruffling or blebbing of the membrane) were used for analysis.

C6 glioma cells = experiment: Localization, uptake and cytotoxicity of particles in C6 glioma cells; type: cell-based, Rat; details: same final dye concentration as delivered in the NOV
Protocol: Mouse C6 glioma cells were plated on to glass cover slips at a concentration of approximately 2.5×10^5 cells/mL. Cells were incubated in DMEM supplemented with 10% FBS and 1% p/s overnight. The media was then removed and replaced with fresh media. NOVs were added to the suspension (125-250 μg particles) and the cells incubated for 30 minutes. The cover slip was rinsed with HBSS containing 10 mmol N-2-Hydroxyethylpiperazine-N′-2-Ethane Sulfonic Acid (HEPES) and placed in a stainless steel cell chamber with 1 mL HBSS containing 10 mmol HEPES. In some cases TMRM dissolved in dimethyl sulfoxide was added to the chamber for a total concentration of 50 nM and the chamber was allowed to equilibrate for 10 minutes. The entire chamber was mounted on the confocal microscope and examined with a 60× objective connected to a Z series motor. One mL of a CCCP solution (total concentration 10 μM and, in some cases, containing 50 nM TMRM) was added to the cell chamber and a timer started. A series of images (1 to 2 μm in thickness) was taken in the vertical plane 15 seconds after addition of the CCCP solution, and then every minute for the first 10 minutes. Images were taken at 5 minute intervals thereafter until the 30 minute time point. Cells were illuminated at 488 nm and the fluorescent images were collected at 600 nm (50 nm band pass) and 700 nm (50 nm band pass) for the first two channels. […]

| Compound | response of microfilament regions to CCCP [1] | response of mitochondrial regions to CCCP [1] | drop in E field from minute 3 to minute 4 [2] | mitochondrial E field at t=4 min after CCCP [2] | overall drop in E field from t=0 min to t=30 min [2] | change of mitochondrial E field after CCCP [3] | time for mitochondrial E field to approach zero after addition of CCCP [4] | change of mitochondrial E field after repeated CCCP doses [5] | fluorescence of cells exposed to free dye in an aqueous solution (uptake) (DITNC astrocytes) | fluorescence of cells exposed to free dye in water (uptake) (C6 glioma cells) |
| --- | --- | --- | --- | --- | --- | --- | --- | --- | --- | --- |
| N#CC(C#N)=NNc1cccc(Cl)c1 [CCCP, Carbonyl cyanide 3-chlorophenylhydrazone] | spike at the 10-15 minute time point | normal depolarization | 55% | −1.4×10^6 V/m | 55% | decrease in the E field during the first 10 minutes | approximately 10 minutes | the E field rapidly decreases, followed by a modest repolarization |  |  |
| CCCCN(CCCC)c1ccc2cc(C=Cc3cc[n+](CCCS(=O)(=O)[O-])cc3)ccc2c1 [free dye, pyridinium, 4-(2-(6-(dibutylamino)-2-naphthalenyl)ethenyl)-1-(3-sulfopropyl)-, hydroxide, inner salt] |  |  |  |  |  |  |  |  | did not fluoresce | did not fluoresce |
